Data on 24 compounds can be found in ChEMBL document CHEMBL1147216, “Parallel synthesis and SAR study of novel oxa-steroids as potent and selective progesterone receptor antagonists” (Bioorg Med Chem Lett, 2007).

One assay deals with T1, Progesterone receptor (Homo sapiens, UniProt P06401).
T1 sequence (P06401 whole entry): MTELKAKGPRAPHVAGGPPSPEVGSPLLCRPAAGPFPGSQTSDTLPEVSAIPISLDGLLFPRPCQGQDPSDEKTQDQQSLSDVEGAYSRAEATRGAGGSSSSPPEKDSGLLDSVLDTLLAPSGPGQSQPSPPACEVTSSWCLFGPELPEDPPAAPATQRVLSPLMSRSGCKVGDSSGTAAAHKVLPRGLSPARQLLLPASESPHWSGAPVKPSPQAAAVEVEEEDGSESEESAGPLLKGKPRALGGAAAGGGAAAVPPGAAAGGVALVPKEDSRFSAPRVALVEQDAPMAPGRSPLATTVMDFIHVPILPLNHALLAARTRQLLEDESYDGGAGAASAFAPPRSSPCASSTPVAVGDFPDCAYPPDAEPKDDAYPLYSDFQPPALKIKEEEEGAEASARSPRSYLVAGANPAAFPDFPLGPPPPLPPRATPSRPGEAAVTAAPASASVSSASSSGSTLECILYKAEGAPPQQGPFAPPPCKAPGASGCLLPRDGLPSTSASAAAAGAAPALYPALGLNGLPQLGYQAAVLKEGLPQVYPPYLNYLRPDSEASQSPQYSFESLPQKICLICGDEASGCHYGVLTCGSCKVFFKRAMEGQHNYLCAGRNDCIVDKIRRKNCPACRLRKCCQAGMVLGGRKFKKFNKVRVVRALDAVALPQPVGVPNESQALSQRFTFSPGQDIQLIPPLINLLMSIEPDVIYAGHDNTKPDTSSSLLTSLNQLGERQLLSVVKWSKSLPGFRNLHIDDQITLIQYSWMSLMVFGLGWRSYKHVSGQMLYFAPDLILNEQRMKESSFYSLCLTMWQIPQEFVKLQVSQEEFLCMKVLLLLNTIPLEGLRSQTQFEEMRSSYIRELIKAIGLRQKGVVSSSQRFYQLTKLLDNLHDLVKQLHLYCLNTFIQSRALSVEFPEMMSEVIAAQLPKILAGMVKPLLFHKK
Briefly: Antagonist activity at human progesterone receptor assessed as inhibition of alkaline phosphatase activity in human T47D cells. In kind it is functional, cell-based.

For the next assay, the target named is T2, Glucocorticoid receptor (Homo sapiens, UniProt P04150).
T2 sequence (P04150 whole entry): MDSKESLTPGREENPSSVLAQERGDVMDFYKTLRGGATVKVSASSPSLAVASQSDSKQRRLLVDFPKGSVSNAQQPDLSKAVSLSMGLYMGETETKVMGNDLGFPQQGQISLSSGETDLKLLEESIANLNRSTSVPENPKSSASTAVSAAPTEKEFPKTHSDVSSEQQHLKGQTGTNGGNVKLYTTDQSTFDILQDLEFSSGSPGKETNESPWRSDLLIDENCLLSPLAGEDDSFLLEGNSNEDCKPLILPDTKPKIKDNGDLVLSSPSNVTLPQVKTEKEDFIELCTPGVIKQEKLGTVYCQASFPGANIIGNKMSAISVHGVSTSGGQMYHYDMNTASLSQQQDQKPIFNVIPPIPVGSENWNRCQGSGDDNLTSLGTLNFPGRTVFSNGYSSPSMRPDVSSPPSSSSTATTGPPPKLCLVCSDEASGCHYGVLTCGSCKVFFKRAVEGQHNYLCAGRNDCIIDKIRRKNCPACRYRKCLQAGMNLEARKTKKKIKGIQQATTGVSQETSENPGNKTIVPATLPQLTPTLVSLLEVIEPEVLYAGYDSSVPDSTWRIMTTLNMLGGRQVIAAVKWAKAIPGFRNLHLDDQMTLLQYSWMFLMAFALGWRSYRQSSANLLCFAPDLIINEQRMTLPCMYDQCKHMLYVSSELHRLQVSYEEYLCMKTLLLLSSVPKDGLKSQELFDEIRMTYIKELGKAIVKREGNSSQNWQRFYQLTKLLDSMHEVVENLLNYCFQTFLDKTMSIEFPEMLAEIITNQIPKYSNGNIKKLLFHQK
In words: Antagonist activity at human glucocorticoid receptor assessed as inhibition of corticoid-induced transcription in human A549 cells by GRE-linked luciferase reporter gene assay. In kind it is functional, cell-based. In general terms: A reporter such as luciferase makes a cellular process visible.

Another assay is filed under the species Homo sapiens. Briefly: Selectivity of human progesterone receptor over human glucocorticoid receptor.

By IC50 is commonly meant the concentration at which inhibition is half-maximal.

SMILES strings stand for the structures.

`CN(C)c1ccc([C@H]2C[C@@]3(C)[C@@H](CC[C@@]3(O)C#Cc3ccc(C(C)(C)C)cc3)[C@@H]3OCC4=CC(=O)CCC4=C32)cc1`: the figures for the IC50 at Progesterone receptor and at Glucocorticoid receptor were 19.5 nM and 65.8 nM, respectively. Also, the Ratio IC50 in the assay filed under Homo sapiens came to 3.
The like results for `CN(C)c1ccc([C@H]2C[C@@]3(C)[C@@H](CC[C@@]3(O)C#Cc3ccc(Cl)cc3)[C@@H]3OCC4=CC(=O)CCC4=C32)cc1` were, in that order, 0.61 nM, 43.5 nM and 71.
As to `CN(C)c1ccc([C@H]2C[C@@]3(C)[C@@H](CC[C@@]3(O)C#Cc3cccc(C(F)(F)F)c3)[C@@H]3OCC4=CC(=O)CCC4=C32)cc1`, the IC50 on Progesterone receptor came to 2.7 nM; on Glucocorticoid receptor it was 45.4 nM. In addition, the Ratio IC50 in the assay filed under Homo sapiens came out at 17.
On the same counts, the results for `CN(C)c1ccc([C@H]2C[C@@]3(C)[C@@H](CC[C@@]3(O)C#Cc3cccnc3)[C@@H]3OCC4=CC(=O)CCC4=C32)cc1` are 21 nM, 342 nM and 16.
On the same counts, the results for `CN(C)c1ccc([C@H]2C[C@@]3(C)[C@@H](CC[C@@]3(O)C#Cc3ccc(F)cc3)[C@@H]3OCC4=CC(=O)CCC4=C32)cc1` are 0.27 nM, 37.6 nM and 139.
Consider `CN(C)c1ccc([C@H]2C[C@@]3(C)[C@@H](CC[C@@]3(O)C#Cc3cc(F)cc(F)c3)[C@@H]3OCC4=CC(=O)CCC4=C32)cc1`, for which the IC50 on Progesterone receptor worked out at 0.91 nM; at Glucocorticoid receptor, 34.4 nM. For the same compound, the Ratio IC50 in the assay listed under Homo sapiens stood at 38.
Turning to `CC#C[C@]1(O)CC[C@H]2[C@@H]3OCC4=CC(=O)CCC4=C3[C@@H](c3ccc(N(C)C)cc3)C[C@@]21C`, in the assay filed under Homo sapiens, the Ratio IC50 was 12.
Regarding `Cc1ccc(C#C[C@]2(O)CC[C@H]3[C@@H]4OCC5=CC(=O)CCC5=C4[C@@H](c4ccc(N(C)C)cc4)C[C@@]32C)cc1`, the results for the IC50 on Progesterone receptor and at Glucocorticoid receptor were 1.6 nM and 22.1 nM, respectively. Further, in the assay listed under Homo sapiens, the Ratio IC50 stood at 14.
On the same counts, the results for `CN(C)c1ccc([C@H]2C[C@@]3(C)[C@@H](CC[C@@]3(O)C#Cc3ccncc3)[C@@H]3OCC4=CC(=O)CCC4=C32)cc1` are 39 nM, 247 nM and 6.
Take `CN(C)c1ccc([C@H]2C[C@@]3(C)[C@@H](CC[C@@]3(O)C#Cc3ccccc3C(F)(F)F)[C@@H]3OCC4=CC(=O)CCC4=C32)cc1`: the IC50 turned out to be 3.2 nM on Progesterone receptor and 51 nM on Glucocorticoid receptor. For the same compound, the Ratio IC50 in the assay listed under Homo sapiens was found to be 16.
For `CN(C)c1ccc([C@H]2C[C@@]3(C)[C@@H](CC[C@@]3(O)C#Cc3ccccc3Cl)[C@@H]3OCC4=CC(=O)CCC4=C32)cc1`, the IC50 on Progesterone receptor came to 1.1 nM; on Glucocorticoid receptor, 64.8 nM. Moreover, in the assay listed under Homo sapiens, the Ratio IC50 is 59.
On the same counts, the results for `CN(C)c1ccc([C@H]2C[C@@]3(C)[C@@H](CC[C@@]3(O)C#Cc3cccc(F)c3)[C@@H]3OCC4=CC(=O)CCC4=C32)cc1` are 1 nM, 56.6 nM and 57.
Regarding `CN(C)c1ccc([C@H]2C[C@@]3(C)[C@@H](CC[C@@]3(O)C#Cc3ccccc3Br)[C@@H]3OCC4=CC(=O)CCC4=C32)cc1`, the IC50 turned out to be 8.6 nM at Progesterone receptor and 62.7 nM at Glucocorticoid receptor. The Ratio IC50 in the assay listed under Homo sapiens came out at 7.
On the same counts, the results for `Cc1cccc(C#C[C@]2(O)CC[C@H]3[C@@H]4OCC5=CC(=O)CCC5=C4[C@@H](c4ccc(N(C)C)cc4)C[C@@]32C)c1` are 2.9 nM, 36.3 nM and 13.
The like results for `CN(C)c1ccc([C@H]2C[C@@]3(C)[C@@H](CC[C@@]3(O)C#Cc3ccc(C#N)cc3)[C@@H]3OCC4=CC(=O)CCC4=C32)cc1` were, in that order, 3.7 nM, 41.3 nM and 11.
The like results for `Cc1ccccc1C#C[C@]1(O)CC[C@H]2[C@@H]3OCC4=CC(=O)CCC4=C3[C@@H](c3ccc(N(C)C)cc3)C[C@@]21C` were, in that order, 5.8 nM, 113 nM and 20.
In the case of `CN(C)c1ccc([C@H]2C[C@@]3(C)[C@@H](CC[C@@]3(O)C#Cc3ccccc3)[C@@H]3OCC4=CC(=O)CCC4=C32)cc1`, the Ratio IC50 in the assay listed under Homo sapiens came out at 217.
For the compound `CN(C)c1ccc([C@H]2C[C@@]3(C)[C@@H](CC[C@@]3(O)C#Cc3ccsc3)[C@@H]3OCC4=CC(=O)CCC4=C32)cc1`, the IC50 on Progesterone receptor turned out to be 1.6 nM; on Glucocorticoid receptor it was 56 nM. For the same compound, in the assay filed under Homo sapiens, the Ratio IC50 was 35.
On the same counts, the results for `COc1ccc(C#C[C@]2(O)CC[C@H]3[C@@H]4OCC5=CC(=O)CCC5=C4[C@@H](c4ccc(N(C)C)cc4)C[C@@]32C)cc1` are 3.2 nM, 80.3 nM and 25.
The like results for `CN(C)c1ccc([C@H]2C[C@@]3(C)[C@@H](CC[C@@]3(O)C#Cc3ccc(C(F)(F)F)cc3)[C@@H]3OCC4=CC(=O)CCC4=C32)cc1` were, in that order, 0.75 nM, 111 nM and 148.
On the same counts, the results for `CN(C)c1ccc([C@H]2C[C@@]3(C)[C@@H](CC[C@@]3(O)C#Cc3ccc(Br)cc3)[C@@H]3OCC4=CC(=O)CCC4=C32)cc1` are 0.94 nM, 31.3 nM and 33.
On to `CN(C)c1ccc([C@H]2C[C@@]3(C)[C@@H](CC[C@@]3(O)C#Cc3cccc(Cl)c3)[C@@H]3OCC4=CC(=O)CCC4=C32)cc1`, for which the half-maximal inhibitory concentration (IC50) at Progesterone receptor was 12.5 nM; on Glucocorticoid receptor, 48.9 nM. In the assay filed under Homo sapiens, the Ratio IC50 is 4.
On the same counts, the results for `CN(C)c1ccc([C@H]2C[C@@]3(C)[C@@H](CC[C@@]3(O)C#Cc3ccccc3F)[C@@H]3OCC4=CC(=O)CCC4=C32)cc1` are 1.4 nM, 65.1 nM and 47.
On to `CN(C)c1ccc([C@H]2C[C@@]3(C)[C@@H](CC[C@@]3(O)C#Cc3ccccn3)[C@@H]3OCC4=CC(=O)CCC4=C32)cc1`, for which the IC50 was 34 nM on Progesterone receptor and 175 nM on Glucocorticoid receptor. Besides, the Ratio IC50 in the assay filed under Homo sapiens turned out to be 5.
